# According to patent US10800791B2, “Triazole ACC inhibitors and uses thereof” (Gilead Apollo, LLC, priority 2015, dated 2020):
# Read-outs that look alike come from different tables or passages of the source.
# Experiments:
# [1] = test system: C. krusei; experiment: Antifungal Activity Assay (broth microtiter MIC), C. krusei; assay type: cell-based, Candida krusei; settings: Pichia kudriavzevii, ATCC6258, 48 h
# Summary of the method: (§1)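 Colonies from 24 h Sabouraud dextrose agar plates (35° C) are suspended in RPMI 1640+MOPS and diluted to give 2.5×10^3 CFU/mL in the wells. Plates are set up per CLSI M27-A3. Visual MIC is recorded at 48 h.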
# [2] = test system: Botrtyis cinerea (Bc); experiment: Growth inhibition assay of fungal pathogens, Bc; assay type: cell-based; settings: 48 h
# Summary of the method: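 Spores diluted in 17% V8 liquid media and incubated with compound at final 50, 10, 2 ppm or 2, 0.4, 0.08 ppm (2% DMSO). OD600 plus visual ratings at 24 and 48 hours, blank-subtracted; percent growth inhibition from 48 h readings relative to 2% DMSO control.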
# [3] = test system: C. albicans; experiment: Antifungal Activity Assay (broth microtiter MIC), C. albicans; assay type: cell-based, Candida albicans; settings: Candida albicans, ATCC90028, 48 h
# Summary of the method: as §1
# [4] = Table 3a, ATCC 6258, 3 replicates, MIC recorded at 48 h, read-out: MIC, C. krusei ATCC 6258
# [5] = Table 3b (additional results), ATCC 6258, 3 replicates, MIC recorded at 48 h, read-out: MIC, C. krusei ATCC 6258
# [6] = Botrtyis cinerea, growth inhibition at 48 hours vs 2% DMSO control, read-out: Concentration at 90% Inhibition Bc
# [7] = Botrtyis cinerea, growth inhibition vs 2% DMSO control at 48 hours, read-out: Concentration at 90% Inhibition Bc
# [8] = Table 3a, ATCC 90028, 3 replicates, MIC recorded at 48 h, read-out: MIC, C. albicans ATCC 90028
# [9] = Table 3b (additional results), ATCC 90028, 3 replicates, MIC recorded at 48 h, read-out: MIC, C. albicans ATCC 90028
# [10] = read-out: MIC, C. krusei ATCC 6258, Table 3a, 3 replicates, MIC recorded at 48 h
# [11] = read-out: MIC, C. krusei ATCC 6258, Table 3b (additional results), 3 replicates, MIC recorded at 48 h
# [12] = read-out: Concentration at 90% Inhibition Bc, Botrtyis cinerea, growth inhibition at 48 hours vs 2% DMSO control
# [13] = read-out: Concentration at 90% Inhibition Bc, Botrtyis cinerea, growth inhibition vs 2% DMSO control at 48 hours
# [14] = read-out: MIC, C. albicans ATCC 90028, Table 3a, 3 replicates, MIC recorded at 48 h
# [15] = read-out: MIC, C. albicans ATCC 90028, Table 3b (additional results), 3 replicates, MIC recorded at 48 h
Structure (SMILES),"MIC [1, 4] [µg/mL]","MIC [1, 5] [µg/mL]","IC90 [2, 6] [µg/mL]","IC90 [2, 7] [µg/mL]","MIC [3, 8] [µg/mL]","MIC [3, 9] [µg/mL]","MIC [1, 10] [µg/mL]","MIC [1, 11] [µg/mL]","IC90 [2, 12] [µg/mL]","IC90 [2, 13] [µg/mL]","MIC [3, 14] [µg/mL]","MIC [3, 15] [µg/mL]"
COc1ccc(F)cc1[C@H](Cn1c(=O)n(C(C)(C)C(N)=O)c(=O)c2c(C)c(-n3nccn3)sc21)OC1CCOCC1 [Compound I-1],0.25 to 1,0.25 to 1,2,2,0.25 to 1,0.25 to 1,–,–,–,–,–,–
"COc1ccc(F)cc1[C@H](Cn1c(=O)n(C(C)(C)C(N)=O)c(=O)c2c(C)c(-n3nccn3)sc21)OC(C)C [Compound I-2, (R)-2-(1-(2-(5-fluoro-2-methoxyphenyl)-2-isopropoxyethyl)-5-methyl-2,4-dioxo-6-(2H-1,2,3-triazol-2-yl)-1,4-dihydrothieno[2,3-d]pyrimidin-3(2H)-yl)-2-methylpropanamide]",0.25 to 1,0.25 to 1,2,2,2.1 to 4,1.01 to 2,–,–,–,–,–,–
"CCNC(=O)C(C)(C)n1c(=O)c2c(C)c(-n3nccn3)sc2n(C[C@H](OC(C)C)c2cc(F)ccc2OC)c1=O [Compound I-3, (R)—N-ethyl-2-(1-(2-(5-fluoro-2-methoxyphenyl)-2-isopropoxyethyl)-5-methyl-2,4-dioxo-6-(2H-1,2,3-triazol-2-yl)-1,4-dihydrothieno[2,3-d]pyrimidin-3(2H)-yl)-2-methylpropanamide]",–,–,–,–,–,–,0.25 to 1,0.25 to 1,0.4,0.4,1.1 to 2,1.01 to 2
"COc1ccc(F)cc1[C@H](Cn1c(=O)n(C(C)(C)C(=O)NC(C)C)c(=O)c2c(C)c(-n3nccn3)sc21)OC(C)C [Compound I-4, (R)-2-(1-(2-(5-fluoro-2-methoxyphenyl)-2-isopropoxyethyl)-5-methyl-2,4-dioxo-6-(2H-1,2,3-triazol-2-yl)-1,4-dihydrothieno[2,3-d]pyrimidin-3(2H)-yl)-N-isopropyl-2-methylpropanamide]",–,–,–,–,–,–,0.25 to 1,0.25 to 1,0.08,0.08,0.25 to 1,0.25 to 1
"COc1ccc(F)cc1[C@H](Cn1c(=O)n(C(C)(C)C(=O)N2CCOCC2)c(=O)c2c(C)c(-n3nccn3)sc21)OC(C)C [Compound I-5, (R)-1-(2-(5-fluoro-2-methoxyphenyl)-2-isopropoxyethyl)-5-methyl-3-(2-methyl-1-morpholino-1-oxopropan-2-yl)-6-(2H-1,2,3-triazol-2-yl)thieno[2,3-d]pyrimidine-2,4(1H,3H)-dione]",–,–,–,–,–,–,1.1 to 2,2.01 to 4,0.4,0.4,2.1 to 4,2.01 to 4
"COc1ccc(F)cc1[C@H](Cn1c(=O)n(C(C)(C)C(=O)N2CCCCC2)c(=O)c2c(C)c(-n3nccn3)sc21)OC(C)C [Compound I-6, (R)-1-(2-(5-fluoro-2-methoxyphenyl)-2-isopropoxyethyl)-5-methyl-3-(2-methyl-1-oxo-1-(piperidin-1-yl)propan-2-yl)-6-(2H-1,2,3-triazol-2-yl)thieno[2,3-d]pyrimidine-2,4(1H,3H)-dione]",–,–,–,–,–,–,0.25 to 1,0.25 to 1,0.08,0.08,0.25 to 1,0.25 to 1
"COc1ccc(F)cc1[C@H](Cn1c(=O)n(C(C)(C)C(=O)N2CCCC2)c(=O)c2c(C)c(-n3nccn3)sc21)OC(C)C [Compound I-7, (R)-1-(2-(5-fluoro-2-methoxyphenyl)-2-isopropoxyethyl)-5-methyl-3-(2-methyl-1-oxo-1-(pyrrolidin-1-yl)propan-2-yl)-6-(2H-1,2,3-triazol-2-yl)thieno[2,3-d]pyrimidine-2,4(1H,3H)-dione]",0.25 to 1,0.25 to 1,0.4,0.4,1.1 to 2,0.25 to 1,–,–,–,–,–,–
"COc1ccc(F)cc1[C@H](Cn1c(=O)n(C(C)(C)C(N)=O)c(=O)c2c(C)c(-n3nccn3)sc21)OCC(C)C [Compound I-8, (R)-2-(1-(2-(5-fluoro-2-methoxyphenyl)-2-isobutoxyethyl)-5-methyl-2,4-dioxo-6-(2H-1,2,3-triazol-2-yl)-1,4-dihydrothieno[2,3-d]pyrimidin-3(2H)-yl)-2-methylpropanamide]",1.1 to 2,1.01 to 2,2,2,1.1 to 2,1.01 to 2,–,–,–,–,–,–
"CCNC(=O)C(C)(C)n1c(=O)c2c(C)c(-n3nccn3)sc2n(C[C@H](OCC(C)C)c2cc(F)ccc2OC)c1=O [Compound I-9, (R)—N-ethyl-2-(1-(2-(5-fluoro-2-methoxyphenyl)-2-isobutoxyethyl)-5-methyl-2,4-dioxo-6-(2H-1,2,3-triazol-2-yl)-1,4-dihydrothieno[2,3-d]pyrimidin-3(2H)-yl)-2-methylpropanamide]",0.25 to 1,0.25 to 1,0.4,0.4,2.1 to 4,1.01 to 2,–,–,–,–,–,–
"COc1ccc(F)cc1[C@H](Cn1c(=O)n(C(C)(C)C(=O)N2CCCCC2)c(=O)c2c(C)c(-n3nccn3)sc21)OCC(C)C [Compound I-11, (R)-1-(2-(5-fluoro-2-methoxyphenyl)-2-isobutoxyethyl)-5-methyl-3-(2-methyl-1-oxo-1-(piperidin-1-yl)propan-2-yl)-6-(2H-1,2,3-triazol-2-yl)thieno[2,3-d]pyrimidine-2,4(1H,3H)-dione]",–,–,–,–,–,–,1.1 to 2,0.25 to 1,0.4,0.4,1.1 to 2,0.25 to 1
"COc1ccc(F)cc1[C@H](Cn1c(=O)n(C(C)(C)C(=O)N2CCCC2)c(=O)c2c(C)c(-n3nccn3)sc21)OCC(C)C [Compound I-12, (R)-1-(2-(5-fluoro-2-methoxyphenyl)-2-isobutoxyethyl)-5-methyl-3-(2-methyl-1-oxo-1-(pyrrolidin-1-yl)propan-2-yl)-6-(2H-1,2,3-triazol-2-yl)thieno[2,3-d]pyrimidine-2,4(1H,3H)-dione]",0.25 to 1,0.25 to 1,0.4,0.4,1.1 to 2,0.25 to 1,–,–,–,–,–,–
"COc1ccccc1[C@H](Cn1c(=O)n(C(C)(C)C(N)=O)c(=O)c2c(C)c(-n3nccn3)sc21)OC1CCOCC1 [Compound I-14, (R)-2-(1-(2-(2-methoxyphenyl)-2-((tetrahydro-2H-pyran-4-yl)oxy)ethyl)-5-methyl-2,4-dioxo-6-(2H-1,2,3-triazol-2-yl)-1,4-dihydrothieno[2,3-d]pyrimidin-3(2H)-yl)-2-methylpropanamide]",0.25 to 1,1.01 to 2,2,2,0.25 to 1,0.25 to 1,–,–,–,–,–,–
"CCNC(=O)C(C)(C)n1c(=O)c2c(C)c(-n3nccn3)sc2n(C[C@H](OC2CCOCC2)c2ccccc2OC)c1=O [Compound I-15, (R)—N-ethyl-2-(1-(2-(2-methoxyphenyl)-2-((tetrahydro-2H-pyran-4-yl)oxy)ethyl)-5-methyl-2,4-dioxo-6-(2H-1,2,3-triazol-2-yl)-1,4-dihydro-thieno[2,3-d]pyrimidin-3(2H)-yl)-2-methylpropanamide]",0.25 to 1,0.25 to 1,0.4,0.4,0.25 to 1,0.25 to 1,–,–,–,–,–,–
"COc1ccccc1[C@H](Cn1c(=O)n(C(C)(C)C(=O)N2CC(O)C2)c(=O)c2c(C)c(-n3nccn3)sc21)OC1CCOCC1 [Compound I-19, (R)-3-(1-(3-hydroxyazetidin-1-yl)-2-methyl-1-oxopropan-2-yl)-1-(2-(2-methoxyphenyl)-2-((tetrahydro-2H-pyran-4-yl)oxy)ethyl)-5-methyl-6-(2H-1,2,3-triazol-2-yl)thieno[2,3-d]pyrimidine-2,4(1H,3H)-dione]",–,–,–,–,–,–,2.1 to 4,2.01 to 4,10,> 50,2.1 to 4,1.01 to 2
"COc1ccc(F)cc1[C@H](Cn1c(=O)n(C(C)(C)C(=O)N2CCCCC2)c(=O)c2c(C)c(-n3nccn3)sc21)OC1CCOCC1 [Compound I-24, (R)-1-(2-(5-fluoro-2-methoxyphenyl)-2-((tetrahydro-2H-pyran-4-yl)oxy)ethyl)-5-methyl-3-(2-methyl-1-oxo-1-(piperidin-1-yl)propan-2-yl)-6-(2H-1,2,3-triazol-2-yl)thieno[2,3-d]pyrimidine-2,4(1H,3H)-dione]",–,–,–,–,–,–,0.25 to 1,0.25 to 1,0.4,0.4,0.25 to 1,0.25 to 1
